Activity calls are given as the source filed them. No rule for the calls is given here.
System: CCRIS mutagenicity, Ames/micronucleus/aberration tests
Experiment: CCRIS mutagenicity studies
[1] = Test System: AMES SALMONELLA TYPHIMURIUM, Strain/Indicator: TA98, Metabolic Activation: RAT, LIVER, S-9, AROCLOR 1254, Method: STANDARD PLATE
[2] = Test System: AMES SALMONELLA TYPHIMURIUM, Strain/Indicator: TA100, Metabolic Activation: RAT, LIVER, S-9, AROCLOR 1254, Method: STANDARD PLATE
[3] = Test System: AMES SALMONELLA TYPHIMURIUM, Strain/Indicator: TA97, Metabolic Activation: HAMSTER, LIVER, S-9, AROCLOR 1254 (10 OR 30%), Method: PREINCUBATION
[4] = Test System: AMES SALMONELLA TYPHIMURIUM, Strain/Indicator: TA97, Metabolic Activation: NONE, Method: PREINCUBATION
[5] = Test System: AMES SALMONELLA TYPHIMURIUM, Strain/Indicator: TA97, Metabolic Activation: RAT, LIVER, S-9, AROCLOR 1254 (10 OR 30%), Method: PREINCUBATION
[6] = Test System: AMES SALMONELLA TYPHIMURIUM, Strain/Indicator: TA98, Metabolic Activation: HAMSTER, LIVER, S-9, AROCLOR 1254 (10 OR 30%), Method: PREINCUBATION
[7] = Test System: AMES SALMONELLA TYPHIMURIUM, Strain/Indicator: TA98, Metabolic Activation: NONE, Method: PREINCUBATION
[8] = Test System: AMES SALMONELLA TYPHIMURIUM, Strain/Indicator: TA98, Metabolic Activation: RAT, LIVER, S-9, AROCLOR 1254 (10 OR 30%), Method: PREINCUBATION
[9] = Test System: AMES SALMONELLA TYPHIMURIUM, Strain/Indicator: TA100, Metabolic Activation: HAMSTER, LIVER, S-9, AROCLOR 1254 (10 OR 30%), Method: PREINCUBATION
[10] = Test System: AMES SALMONELLA TYPHIMURIUM, Strain/Indicator: TA100, Metabolic Activation: NONE, Method: PREINCUBATION
[11] = Test System: AMES SALMONELLA TYPHIMURIUM, Strain/Indicator: TA100, Metabolic Activation: RAT, LIVER, S-9, AROCLOR 1254 (10 OR 30%), Method: PREINCUBATION
[12] = Test System: AMES SALMONELLA TYPHIMURIUM, Strain/Indicator: TA1535, Metabolic Activation: HAMSTER, LIVER, S-9, AROCLOR 1254 (10 OR 30%), Method: PREINCUBATION
[13] = Test System: AMES SALMONELLA TYPHIMURIUM, Strain/Indicator: TA1535, Metabolic Activation: NONE, Method: PREINCUBATION
[14] = Test System: AMES SALMONELLA TYPHIMURIUM, Strain/Indicator: TA1535, Metabolic Activation: RAT, LIVER, S-9, AROCLOR 1254 (10 OR 30%), Method: PREINCUBATION

Measured: mutagenic call

C=CC(=O)OCCCCCOC(=O)C=C
inactive: Test System: AMES SALMONELLA TYPHIMURIUM, Strain/Indicator: TA98, Metabolic Activation: NONE, Method: STANDARD PLATE inactive; negative | [1] inactive; negative | Test System: AMES SALMONELLA TYPHIMURIUM, Strain/Indicator: TA98, Metabolic Activation: RAT, LIVER, S-9, SODIUM PHENOBARBITAL, Method: STANDARD PLATE inactive; negative | Test System: AMES SALMONELLA TYPHIMURIUM, Strain/Indicator: TA100, Metabolic Activation: NONE, Method: STANDARD PLATE inactive; negative | [2] inactive; negative | Test System: AMES SALMONELLA TYPHIMURIUM, Strain/Indicator: TA100, Metabolic Activation: RAT, LIVER, S-9, SODIUM PHENOBARBITAL, Method: STANDARD PLATE inactive; negative | Test System: AMES SALMONELLA TYPHIMURIUM, Strain/Indicator: TA1535, Metabolic Activation: NONE, Method: STANDARD PLATE inactive; negative | Test System: AMES SALMONELLA TYPHIMURIUM, Strain/Indicator: TA1535, Metabolic Activation: RAT, LIVER, S-9, AROCLOR 1254, Method: STANDARD PLATE inactive; negative | Test System: AMES SALMONELLA TYPHIMURIUM, Strain/Indicator: TA1535, Metabolic Activation: RAT, LIVER, S-9, SODIUM PHENOBARBITAL, Method: STANDARD PLATE inactive; negative | Test System: AMES SALMONELLA TYPHIMURIUM, Strain/Indicator: TA1537, Metabolic Activation: NONE, Method: STANDARD PLATE inactive; negative | Test System: AMES SALMONELLA TYPHIMURIUM, Strain/Indicator: TA1537, Metabolic Activation: RAT, LIVER, S-9, AROCLOR 1254, Method: STANDARD PLATE inactive; negative | Test System: AMES SALMONELLA TYPHIMURIUM, Strain/Indicator: TA1537, Metabolic Activation: RAT, LIVER, S-9, SODIUM PHENOBARBITAL, Method: STANDARD PLATE inactive; negative | Test System: AMES SALMONELLA TYPHIMURIUM, Strain/Indicator: TA1538, Metabolic Activation: NONE, Method: STANDARD PLATE inactive; negative | Test System: AMES SALMONELLA TYPHIMURIUM, Strain/Indicator: TA1538, Metabolic Activation: RAT, LIVER, S-9, AROCLOR 1254, Method: STANDARD PLATE inactive; negative | Test System: AMES SALMONELLA TYPHIMURIUM, Strain/Indicator: TA1538, Metabolic Activation: RAT, LIVER, S-9, SODIUM PHENOBARBITAL, Method: STANDARD PLATE inactive; negative

CCCCC(CC)COC(=O)c1cccc(C(=O)OCC(CC)CCCC)c1 (centres undefined)
inactive: [3] inactive; negative | [4] inactive; negative | [5] inactive; negative | [6] inactive; negative | [7] inactive; negative | [8] inactive; negative | [9] inactive; negative | [10] inactive; negative | [11] inactive; negative | [12] inactive; negative | [13] inactive; negative | [14] inactive; negative

CCc1cc(Cc2cc(C)c(N)c(CC)c2)cc(C)c1N
inactive: [1] inactive; negative | [2] inactive; negative

C=CCSSSCC=C
inactive: Test System: UDS RAT HEPATOCYTES, Strain/Indicator: THY INCORP, Metabolic Activation: NONE, Method: AUTORADIOGRAPHY inactive; negative

CC(=O)Nc1cccc(O)c1
inactive: [3] inactive; negative | [4] inactive; negative | [5] inactive; negative | [6] inactive; negative | [7] inactive; negative | [8] inactive; negative | [9] inactive; negative | [10] inactive; negative | [11] inactive; negative | [12] inactive; negative | [13] inactive; negative | [14] inactive; negative

CC[C@H]1OC(=O)[C@H](C)[C@@H](O[C@H]2C[C@@](C)(OC)[C@@H](O)[C@H](C)O2)[C@H](C)[C@@H](O[C@@H]2O[C@H](C)C[C@H](N(C)C)[C@H]2O)[C@](C)(O)C[C@@H](C)C(=O)[C@H](C)[C@@H](O)[C@]1(C)O
inactive: End Point: AMES SALMONELLA TYPHIMURIUM, Test System: TA98, Metabolic Activation: NONE, Method: STANDARD PLATE inactive; negative | End Point: AMES SALMONELLA TYPHIMURIUM, Test System: TA100, Metabolic Activation: NONE, Method: STANDARD PLATE inactive; negative | End Point: IN VITRO CHROMOSOMAL ABERRATIONS, Test System: CHO CELLS, Metabolic Activation: NONE inactive; negative; testing limited by solubility of the chemical | End Point: IN VITRO CHROMOSOMAL ABERRATIONS, Test System: CHO CELLS, Metabolic Activation: RAT, LIVER, S-9, AROCLOR 1254 inactive; negative; testing limited by solubility of the chemical | Test System: AMES SALMONELLA TYPHIMURIUM, Strain/Indicator: TA98, Metabolic Activation: HAMSTER, LIVER, S-9, AROCLOR 1254, Method: PREINCUBATION inactive; negative | [7] inactive; negative | Test System: AMES SALMONELLA TYPHIMURIUM, Strain/Indicator: TA98, Metabolic Activation: RAT, LIVER, S-9, AROCLOR 1254, Method: PREINCUBATION inactive; negative | Test System: AMES SALMONELLA TYPHIMURIUM, Strain/Indicator: TA100, Metabolic Activation: HAMSTER, LIVER, S-9, AROCLOR 1254, Method: PREINCUBATION inactive; negative | [10] inactive; negative | Test System: AMES SALMONELLA TYPHIMURIUM, Strain/Indicator: TA100, Metabolic Activation: RAT, LIVER, S-9, AROCLOR 1254, Method: PREINCUBATION inactive; negative | Test System: AMES SALMONELLA TYPHIMURIUM, Strain/Indicator: TA1535, Metabolic Activation: HAMSTER, LIVER, S-9, AROCLOR 1254, Method: PREINCUBATION inactive; negative | [13] inactive; negative | Test System: AMES SALMONELLA TYPHIMURIUM, Strain/Indicator: TA1535, Metabolic Activation: RAT, LIVER, S-9, AROCLOR 1254, Method: PREINCUBATION inactive; negative | Test System: AMES SALMONELLA TYPHIMURIUM, Strain/Indicator: TA1537, Metabolic Activation: HAMSTER, LIVER, S-9, AROCLOR 1254, Method: PREINCUBATION inactive; negative | Test System: AMES SALMONELLA TYPHIMURIUM, Strain/Indicator: TA1537, Metabolic Activation: NONE, Method: PREINCUBATION inactive; negative | Test System: AMES SALMONELLA TYPHIMURIUM, Strain/Indicator: TA1537, Metabolic Activation: RAT, LIVER, S-9, AROCLOR 1254, Method: PREINCUBATION inactive; negative | Test System: MOUSE LYMPHOMA, Strain/Indicator: L5178Y (TK+/TK-), Metabolic Activation: RAT, LIVER, S-9, AROCLOR 1254, Method: SUSPENSION/PLATE inactive; negative

Reference: PubChem BioAssay AID1259407 (Chemical Carcinogenesis Research Information System (CCRIS), 2018)
